Experimental data taken from US11434205B2, “Substituted imidazole carboxylate derivatives and the use thereof” (priority 2018, dated 2022).
Where two headings read alike, the source gives them in different places.

What was measured:
rats [1] = settings: continuous tail vein infusion at 2×MIR, LORR maintained 1 hour
Experimental: Pharmacological Effects of the Compounds on Continuous Infusion in Rats
Adult male Sprague-Dawley rats with body weight ranging from 250 to 300 gm were selected for continuous infusion test. […] Time to recovery of righting reflex from stopping infusion, and time to fully awake from stopping infusion were recorded.

rats [2] = experiment: Loss of righting reflexes (LORR) assay in rats, ED50 by up and down method; type: in vivo, rat; settings: tail vein, class symbols; for ED50: Rattus norvegicus
In short: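 ED50 obtained by up-and-down dosing, with righting-reflex loss over 30 s counted as general anesthesia. Compounds injected into the tail vein (0.1 mL/s) of male Sprague-Dawley rats weighing 250-300 g.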

rats [3] = experiment: Pharmacological characteristics at equivalent doses (2×ED50) in rats; settings: 2×ED50, tail vein; for Adverse reactions: Red urine (incidence): DMSO solution (DMSO alone 10/10); for Onset time: time of LORR; for Adverse reactions: Tremor (incidence): animals affected/animals
In short: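 Anesthesia onset, recorded as time of LORR, was measured after a 2×ED50 tail-vein injection (0.6 mL, 0.1 mL/s). Animals were male Sprague-Dawley rats of 250-300 g, n=8.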

rats [4] = tested on: rats
Experimental: Adult male Sprague-Dawley rats (250-300 g) were selected for the experiment. […] The anesthesia effects of the compounds were assessed in rats using a LORR assay and a period >30 s was considered as an indicator of general anesthesia. Then the up and down method was used to determine 50% effective dose (ED50). The drugs were administered through the tail vein of rats in a volume of 0.6 mL and at a rate of 0.1 mL/s.

rats [5] = type: in vivo, rat; settings: rats of the MAP/HR figures, 2×ED50, tail vein
rats [6] = type: in vivo, rat; settings: rats of the MAP/HR figures, 2×ED50, tail vein; same value in min
In short: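 Hemodynamic stability judged from mean arterial pressure and heart rate, recorded at 15 s intervals over 30 min pre- and post-dose. Dosing was through a tail-vein indwelling catheter in rats carrying implanted aortic/ventricular catheters and ECG wires, operated ≥1 week earlier.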

Compound	Onset time (rats [1]; Table D4) [min]	Recovery time after stopping infusion (rats [1]; Table D4) [min]	Types and incidence of adverse reactions (rats [1]; Table D4)	ED50 (rats [2]) [mg/kg]	Righting reflex duration (rats [3]) [min]	Adverse reactions: Red urine (incidence) (rats [3])	Onset time (rats [3]) [min]	Approximate therapeutic index (rats [4])	Minimal lethal dose (rats [4]) [mg/kg]	recovery time of the test animals' righting reflex (rats [5]) [s]	recovery time of the test animals' righting reflex (rats [6]) [min]	Adverse reactions: Restlessness (incidence) (rats [3])	Adverse reactions: Tremor (incidence) (rats [3])	Adverse reactions: Euphoria (incidence) (rats [3])	Onset time (rats [1]; Table E4) [min]	Recovery time after stopping infusion (rats [1]; Table E4) [min]	Types and incidence of adverse reactions (rats [1]; Table E4)	ED50 (mg/kg) (rats [2])	Sedation duration (mg/kg) (rats [3])
C#CC1(OC(=O)c2cncn2[C@H](C)c2ccccc2)CCC1 [Compound D1]	3 to 4	11 to 14	Tremor (2/6)	0.1 to 0.5	4.28 ± 1.78	Red urine (8/8)	0.26 ± 0.10	>14	>6	785	13.08								
C#CC1(OC(=O)c2cncn2[C@H](C)c2ccccc2)COC1 [Compound D3]	2 to 3	7 to 9	Restlessness (2/6), Tremor (3/6)	0.5 to 1	1.05 ± 0.29	urine (8/8)	0.19 ± 0.05	>10	>8	76	1.27	Restlessness (4/8), Red							
C#CC1(COC(=O)c2cncn2[C@H](C)c2ccccc2)CCC1 [Compound D10]	3 to 4	13 to 17	Tremor (6/6)	0.5 to 1	6.04 ± 2.27	(8/8)	0.14 ± 0.03	>12	>6	605	10.08		Tremor (2/8), Red urine						
C=C=CC(C)OC(=O)c1cncn1[C@H](C)c1ccccc1 (stereo partly shown) [Compound D22]	3 to 4	14 to 18	Euphoria (2/6), Tremor (4/6)	0.1 to 0.5	4.51 ± 1.63	urine (8/8)	0.24 ± 0.07	>11	>2	50	0.83			Euphoria (1/8), Red					
CCCC(C)(C)OC(=O)c1c(F)ncn1[C@H](C)c1ccccc1 [Compound E29]				0.1 to 0.5	2.74 ± 2.63	(8/8)	0.48 ± 0.21	>15	>6	165	2.75								
CCC(C)(CC)OC(=O)c1c(F)ncn1[C@H](C)c1ccccc1 [Compound E30]				0.1 to 0.5	1.23 ± 0.58	(8/8)	0.60 ± 0.18	>42	>6	80	1.33								
C=CC(C)(C)OC(=O)c1c(F)ncn1[C@H](C)c1ccccc1 [Compound E32]					3.86 ± 1.13	urine (8/8)	0.30 ± 0.14	>30	>4	219	3.65		(3/8), Red		2 to 3	12 to 16	Tremor (2/6), Tongue stretching (3/6)	B (B means that the measured ED50 is in the range of 0.10-0.50 mg/kg (excluding 0.10 mg/kg, including 0.50 mg/kg).)	8.70 ± 2.07
C=C=CC1(OC(=O)c2c(F)ncn2[C@H](C)c2ccccc2)CCC1 [Compound E64]				0.01 to 0.1	2.28 ± 1.28	urine (8/8)	0.31 ± 0.06	>40	>1.5	149	2.48		(2/8), Red		2 to 3	11 to 14	No		
C=C=CC1(SC(=O)c2c(F)ncn2[C@H](C)c2ccccc2)CSC1 [Compound E90]				0.01 to 0.1	1.29 ± 0.64	urine (8/8)	0.50 ± 0.20	>30	>1.5	85	1.42		(1/8), Red		2 to 3	9 to 12	Tremor (2/6)		
CCOC(=O)c1c(Cl)ncn1[C@H](C)c1ccccc1 [Compound E100]					1.98 ± 1.85	urine (8/8)	0.60 ± 0.24	>30	>12	110	1.83		(5/8), Red		2 to 3	9 to 14	Tremor (3/6)	B (B means that the measured ED50 is in the range of 0.10-0.50 mg/kg (excluding 0.10 mg/kg, including 0.50 mg/kg).)	5.82 ± 2.11
CC#CC(C)OC(=O)c1c(Cl)ncn1[C@H](C)c1ccccc1 (stereo partly shown) [Compound E116]				0.5 to 1	1.18 ± 0.56	(8/8)	0.61 ± 0.23	>16	>10	92	1.53				3 to 4	11 to 15	Tremor (1/6), Tongue stretching (3/6)		
CCOC(=O)c1c(Cl)nc(Cl)n1[C@H](C)c1ccccc1 [Compound E129]				0.1 to 0.5	0.68 ± 0.34	urine (8/8)	0.87 ± 0.26	>30	>9	52	0.87		(3/8), Red		3 to 4	8 to 13	No		
